# Laboratory results as given in paper PMC2737470 (Circulation research, 2009).
# What was measured:
# [1] = system: N2a cell pairs expressing Cx43; test: Patch clamp, octanol-induced uncoupling of Cx43 channels; format: cell-based
# [2] = biological target: carboxyl terminal domain of Cx43 (Cx43CT), recombinant; test: SPR
# [3] = system: carboxyl terminal domain of Cx43 (Cx43CT); test: Surface plasmon resonance, peptide binding to immobilised Cx43CT; conditions: molecular weight-normalized responses, same sensor chip
# [4] = system: N2a cells expressing Cx40; test: Patch clamp, octanol-induced uncoupling of Cx40 channels; format: cell-based; conditions: N2a cells expressing Cx40, peptide in pipette
# recombinant Cx40CT = test: Surface plasmon resonance with recombinant Cx40CT; format: binding; conditions: Online Figure IV
# recombinant Cx43CT = test: NMR 15N-HSQC of Cx43CT titrated with peptide; format: binding; conditions: Cx43CT titrated with peptide to 1:500 and 1:900 molar ratio
molecule,measurement,setting,value
Cyclo-RRPPYQ (head to tail) [CyRP-62],cells remaining coupled after ten minutes of octanol superfusion,[1]; peptide 100 μM in patch pipette,100%
RRNYRRNY,cell pairs in which the peptide failed to prevent uncoupling,"[1]; octanol-induced uncoupling, peptide in pipette",approximately 40%
same,cell pairs remaining coupled at the end of octanol exposure (number of pairs),"[1]; peptide in patch pipette (100 μM), 10 minutes of octanol",four of the six
CyRP-71 (cyclo-RRPPYRQ as printed in Table 1) (peptide),SPR response amplitude normalized by molecular weight,[2],33.9 a.u.
Cyclo-RRPPYRQ (head to tail) [CyRP-71],SPR response relative to CyRP-62 (times higher),[3],9 times
same,effect on time course of octanol-induced uncoupling in Cx40 (in words),[4],did not modify the time course
same,SPR response with Cx40CT (in words),recombinant Cx40CT,only a minor SPR deflection
same,interaction with Cx43CT by 15N-HSQC resonance shifts (in words),recombinant Cx43CT,confirm the binding of Cx43CT to CyRP-71
"RRPPYQ (backbone-cyclized (cyclo-, Q6 joined to R1)) [CyRP-62 (cyclo-RRPPYQ)]",SPR response amplitude normalized by molecular weight (125 μM),[2],3.71 a.u.
